Values after ≈ are worked out from the molar mass of the structure shown. Like-named read-outs stand apart in the source and are kept apart here. Each block holds one molecule with its values, some of them ahead of it.
What was measured:
[1] = Prodrug hydrolysis / conversion into β-lap by HPLC at different pH; format: physicochemical; details: for pH sensitivity of hydrolysis: hydrolysis study at neutral pH and acidic pH; for half-life at 5 μmol/mL: acetonitrile/buffered solution (30:70, v/v)
Protocol: The HPLC system consisted of a quaternary pump, a vacuum degasser, an autosampler, a C18 column (4.6 mm×250 mm, Agilent, CA) and UV detector at 254 nm (Perkin Elmer, MA, USA). The mobile phase was acetonitrile/water (60:40) and a flow rate of 1.0 mL/min was used.

[2] = tested on: A549 cells; assay: Cytotoxicity assay, long-term relative survival by DNA content; format: cell-based, human
Protocol: Long-term, relative survival was assessed based on DNA content as described (Pink, J. J., Planchon, S. M., Tagliarino, C., Varnes, M. E., Siegel, D., and Boothman, D. A. (2000) NAD(P)H:Quinone oxidoreductase activity is the principal determinant of beta-lapachone cytotoxicity. J. Biol. Chem. 275, 5416-24). Briefly, A549 cells were seeded at 5×10^3/well in 48-well dishes a day before experiments. Cells were then mock-treated or exposed to various doses of β-lap or β-lap prodrug (6) conjugated micelles for preferred time in the presence or absence of dicoumoral (40 μM) as indicated. Subsequently, cells were replenished with drug-free medium and allowed to grow for 5-7 days until control cells reached ˜100% confluence. DNA content was determined by Hoechst 33258 staining and fluorescence detection using a plate reader (Perkin-Elmer, Boston, Mass.). Results were graphed as means±SE from sixtuplicate. Independent experiments were repeated at least three times. DIC is a specific NQO1 inhibitor and used to block β-Lap induced cytotoxicity.

[3] = target: NQO1 (Homo sapiens, UniProt P15559); details: upon NQO1 bioactivation, futile cycle; cited from earlier work
Chain of NQO1 (P15559 whole entry): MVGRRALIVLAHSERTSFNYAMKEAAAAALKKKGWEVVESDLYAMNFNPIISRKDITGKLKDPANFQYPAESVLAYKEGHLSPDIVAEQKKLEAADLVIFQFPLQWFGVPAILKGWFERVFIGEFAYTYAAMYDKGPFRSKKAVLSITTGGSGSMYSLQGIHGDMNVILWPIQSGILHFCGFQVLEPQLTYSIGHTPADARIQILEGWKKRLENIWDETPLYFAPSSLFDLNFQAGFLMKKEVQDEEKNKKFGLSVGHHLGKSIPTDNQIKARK

[4] = inclusion complex with hydroxylpropyl β-cyclodextrin; cited from earlier work
[5] = free drug; cited from earlier work

SMILES: CC1(C)CCc2c(c3ccccc3c3nc(CCCCO)oc23)O1 [(4), 4-(6,6-dimethyl-5,6-dihydro-4H-benzo[7,8]chromeno[6,5-d]oxazol-2-yl)butan-1-ol]
pH sensitivity of hydrolysis [1]: resisted acid catalyzed hydrolysis

SMILES: Nc1ccc(N2C(=O)C=CC2=O)cc1 [linker, N-(4-Aminophenyl)maleimide]
toxicity ([2]; A549, treatment up to 24 h): No toxicity

SMILES: CC(=O)N/N=C1\C(=O)C2=C(OC(C)(C)CC2)c2ccccc21 [prodrug (1), (Z)—N′-(2,2-dimethyl-5-oxo-3,4-dihydro-2H-benzo[h]chromen-6(5H)-ylidene)acetohydrazide]
pH sensitivity of hydrolysis [1]: not pH-sensitive

SMILES: CC1(C)CCC2=C(O1)c1ccccc1/C(=N\c1ccc(N3C(=O)C=CC3=O)cc1)C2=O [prodrug (6), (E)-1-(4-(2,2-dimethyl-5-oxo-3,4-dihydro-2H-benzo[h]chromen-6(5H)-ylideneamino)phenyl)-1H-pyrrole-2,5-dione]
half-life at 5 μmol/mL ([1]; pH 5, pH 5.0, room temperature, read-out: half-life of conversion into β-lap, t1/2 (pH 5.0) (converted)): 1.1 h
half-life at 5 μmol/mL ([1]; pH 7.4, pH 7.4, read-out: half-life for hydrolysis, t1/2 (pH 7.4)): > 90 h
pH sensitivity of hydrolysis [1]: inspiring pH sensitivity both at neutral and at acidic conditions
prodrug converted into β-Lap ([1]; pH 5.0, after 1.5 hr): more than 50%
prodrug hydrolyzed ([1]; pH 5.0, after 10 hrs): all prodrug (6) was hydrolyzed
β-Lap released from prodrug ([1]; pH 5.0 buffer, 5 mins): only a trace
prodrug converted into β-Lap ([1]; pH 6.5, after 24 hrs): about 30%
prodrug converted into β-Lap ([1]; pH 7.4, after 24 hrs): ~3.3%

SMILES: CC1(C)CCC2=C(O1)c1ccccc1C(=O)C2=O [β-lap, β-Lapachone]
cytotoxicity in the presence of dicoumarol (NQO1 inhibitor) ([2]; A549, dicoumarol 40 μM): blocked
concentration sufficient to reach maximal cytotoxicity ([2]; A549 cells, within 2 hours): 5 µM
moles of H2O2 and other ROS produced per mole of β-lap [3]: 120 mol
binding constant [4]: 1100 M⁻¹
aqueous solubility [5]: 38 µg/mL (≈ 157 µM)

The next lines start with the values.

pH sensitivity of hydrolysis [1]: resisted acid catalyzed hydrolysis
SMILES: Cc1cc2nc3c(oc-2cc1=O)c1c(c2ccccc23)OC(C)(C)CC1 [(5), 3,3,11-trimethyl-2,3-dihydrobenzo[a]pyrano[2,3-c]phenoxazin-12(1H)-one]

pH sensitivity of hydrolysis [1]: not pH-sensitive
SMILES: CC1(C)CCC2=C(O1)c1ccccc1[C@]1(OC[C@@](C)(CO)CO1)C2=O [prodrug (2), (2′r,5′r)-5′-(hydroxymethyl)-2,2,5′-trimethyl-3,4-dihydrospiro[benzo[h]chromene-6,2′-[1,3]dioxan]-5(2H)-one]

pH sensitivity of hydrolysis [1]: not pH-sensitive
SMILES: CC1(C)CCC2=C(O1)c1ccccc1[C@]1(OC[C@](C)(CO)CO1)C2=O [prodrug (3), (2′s,5′s)-5′-(hydroxymethyl)-2,2,5′-trimethyl-3,4-dihydrospiro[benzo[h]chromene-6,2′-[1,3]dioxan]-5(2H)-one]

Source: US9631041B2, “PH-sensitive compositions for delivery of beta lapachone and methods of use” (The Board of Regents of the University of Texas System, priority 2010, dated 2017)
